Usually IC50 stands for the concentration needed to halve the response being measured. One may read the CC50 as the concentration at which the toxic effect on the cells reaches its halfway point. The low end stands for harm at low concentration, the high end for better tolerance by the cells.

Data set [1] relates to intracellular amastigote forms of Leishmania (L.) infantum. The data set can be described thus: Activity against L. (L.) infantum intracellular amastigotes in infected peritoneal macrophages. To be noted: for SI (selectivity index): CC50 NCTC cells/IC50 parasites; for IC50 / IC50 L. (L.) infantum: 96 h; for IC50: read-out: IC50 L. (L.) infantum. Type of data set: cell-based. As to the method:
L. (L.) infantum (MHOM/BR/1972/LD) was maintained through successive passages in golden hamsters up to 60–70 days post-infection. Amastigotes were harvested from spleens of infected hamsters by differential centrifugation.
(§1) Macrophages were collected from the peritoneal cavity of female BALB/c mice by washing with RPMI-1640 without phenol red, supplemented with 10% FBS at 37 °C in a humidified atmosphere containing 5% CO2. NCTC (clone 929) cells were maintained in RPMI-1640 (without phenol red and supplemented with 10% FBS) at 37 °C in the same conditions of the peritoneal macrophages.
The 50% inhibitory concentrations (IC50) against intracellular amastigotes for tested compounds were determined in infected macrophages. Peritoneal macrophages were obtained as described in the Section 3.6.3, and L. (L.) infantum amastigotes were obtained from spleens of infected hamsters by differential centrifugation. Peritoneal macrophages were seeded at 1 × 10^5 cells per well in Nunc™ 16-well slide chambers (Aldrich, St. Louis, MO, USA) for 24 h at 37 °C in a 5% CO2-humidified incubator. Next, amastigotes were isolated from a spleen of an infected hamster as described, counted, seeded at a 1:10 macrophages/amastigotes ratio, and incubated for 24 h. Non-internalized parasites were removed by washing twice with a culture medium. Then, the macrophages were incubated with compounds or standard drug (miltefosine) in a range of 100 to 0.78 μM for 96 h at 37 °C in a 5% CO2-humidified incubator, using miltefosine as a standard drug. At the end of the assay, the cells were fixed in methanol, stained with Giemsa, and observed under a digital light microscope (EVOS M5000, Thermo, Waltham, MA, USA) to determine the number of infected macrophages out of 400 cells.
(§2) The data obtained represent the mean and standard deviation of duplicate samples from at least three independent assays. IC50 and CC50 values were calculated using sigmoid dose–response curves in Graph Pad Prism 5.0 software (GraphPad Software, San Diego, CA, USA).

Data set [2] can be described thus: Cytotoxicity against mammalian cells (MTT assay). It counts as cell-based. To be noted: mouse, NCTC clone 929 cells, highest concentration 200 μM. As to the method: as §1
The 50% cytotoxic concentration (CC50) was determined in NCTC clone 929 cells. NCTC cells were seeded at 6 × 10^4 cells/well in 96-well microplates and incubated with serial dilutions of the tested compounds or standard drug (miltefosine) to the highest concentration of 200 μM for 48 h at 37 °C in a 5% CO2-humidified incubator. An MTT assay determined the viability of the cells at 570 nm. The selectivity index (SI) was determined considering the following equation: CC50 NCTC cells/IC50 parasites.
as §2
In general terms: Tetrazolium dyes change colour on reduction, which living cells bring about.

The mark [3] stands for this setting: Peritoneal macrophage, intracellular amastigotes in BALB/c peritoneal macrophages, 100 to 0.78 μM, NA: non-active.
[4] abbreviates: intracellular amastigotes in BALB/c peritoneal macrophages, 100 to 0.78 μM, NA: non-active.

Molecules are shown by their SMILES. Entries after “also recorded” stand apart in the source; their conditions may differ. Read-outs that look alike come from different tables or passages of the source. Bounds are passed on as bounds.

For the compound `C=CCCCCCCC#CCCCCCCCCCC[C@@H]1C(=O)O[C@H](C)[C@@H]1O` [Compound 1, (2S,3R,4R)-3-hydroxy-4-methyl-2-(n-eicos-11′-yn-19′-enyl)butanolide], the “SI (selectivity index)” value in data set [1] is given as greater than 6.7. For the same compound, the IC50 in data set [1] (setting [3]) stood at 29.9 ± 9.7 µM. The compound also registered a CC50 at 48 h in data set [2] greater than 200 µM.

`C=CCCCCCCC#CCCCCCCCCCC[C@@H]1C(=O)O[C@H](C)[C@@H]1OC(C)=O` [Compound 1a, (2S,3R,4R)-3-Acetoxy-4-methyl-2-(n-eicos-11′-yn-19′-enil)butanolide]: the “SI (selectivity index)” value in data set [1] is greater than 4.6. The IC50 came out at 43.3 µM in data set [1] (setting [3]) and 43.4 ± 3.9 µM in data set [1] (setting [4]). For the same compound, in data set [2], the CC50 at 48 h is greater than 200 µM.

`C=CCCCCCCC#CCCCCCCCCCCC1=C[C@@H](C)OC1=O` [Compound 1b, 4R-Methyl-2-(n-eicos-11′-yn-19′-enil)but-2-enolide]: in data set [1], the “SI (selectivity index)” value is reported as greater than 8.6. Besides, the IC50 in data set [1] (Peritoneal macrophage) is 23.1 ± 5.4 µM. This compound displayed a CC50 at 48 h in data set [2] greater than 200 µM.

`CCCCCCCCC#CCCCCCCCCCC[C@@H]1C(=O)O[C@H](C)[C@@H]1O` [Compound 2, (2S,3R,4R)-3-hydroxy-4-methyl-2-(n-eicos-11′-ynyl)butanolide]: in data set [1] (setting [3]), the IC50 was greater than 100 µM. Besides, the “IC50 L. (L.) infantum” value in data set [1] (setting [4]) is “inactive”. This compound also came in with a CC50 at 48 h in data set [2] greater than 200 µM.

For the compound `CCCCCCCCC#CCCCCCCCCCC[C@@H]1C(=O)O[C@H](C)[C@@H]1OC(C)=O` [Compound 2a, (2S,3R,4R)-3-Acetoxy-4-methyl-2-(n-eicos-11′-ynil)butanolide], in data set [1] (setting [4]), the “IC50 L. (L.) infantum” value is on record as “no activity”. This compound had a CC50 at 48 h in data set [2] greater than 200 µM.

As for `CCCCCCCCC#CCCCCCCCCCCC1=C[C@@H](C)OC1=O` [Compound 2b, 4R-Methyl-2-(n-eicos-11′-ynil)but-2-enolide], in data set [1] (setting [4]), the “IC50 L. (L.) infantum” value is “no activity”. Besides, the CC50 at 48 h in data set [2] is greater than 200 µM.

For the compound `CCCCCCCCCCCCCCCCCCCCC1C(=O)OC(C)C1O` [Compound 3, (2S,3R,4R)-3-Hydroxy-4-methyl-2-(n-eicosanil)butanolide], the IC50 in data set [1] (setting [3]) was greater than 100 µM. Also, the “IC50 L. (L.) infantum” value in data set [1] (setting [4]) is recorded as “lack of activity; also recorded: no activity”. For the same compound, the CC50 at 48 h in data set [2] was greater than 200 µM.

Consider `CCCCCCCCCCCCCCCCCCCCC1C(=O)OC(C)C1OC(C)=O` [Compound 3a, (2S,3R,4R)-3-Acetoxy-4-methyl-2-(n-eicosanil)butanolide], for which, in data set [1] (setting [4]), the “IC50 L. (L.) infantum” value is “lack of activity; also recorded: no activity”. The compound also yielded a CC50 at 48 h in data set [2] greater than 200 µM.

Regarding `CCCCCCCCCCCCCCCCCCCCC1=C[C@@H](C)OC1=O` [Compound 3b, 4R-Methyl-2-(n-eicosanil)but-2-enolide], the “IC50 L. (L.) infantum” value in data set [1] (setting [4]) is reported as “lack of activity; also recorded: no activity”. The compound further came in with a CC50 at 48 h in data set [2] greater than 200 µM.

In the case of `CCCCCCCCCCCCCCCCOP(=O)([O-])OCC[N+](C)(C)C` [Miltefosine, reference compound], the “SI (selectivity index)” value in data set [1] was determined as 6.5. Further, the IC50 in data set [1] (setting [3]) turned out to be 17.8 ± 1.4 µM. The CC50 at 48 h in data set [2] is 116 ± 5.3 µM.
